Data from ChEMBL document CHEMBL5696441 (Nat Chem Biol, 2011).

How the values were obtained:
[1] = target: Activin receptor type-2B (Homo sapiens) (UniProt Q13705); assay: Inhibition of ACVR2B (unknown origin) assessed as remaining activity at 1 uM by Kinome scan method relative to control
[2] = target: Fibroblast growth factor receptor 4 (Homo sapiens) (UniProt P22455); assay: Inhibition of FGFR4 (unknown origin) assessed as remaining activity at 1 uM by Kinome scan method relative to control
[3] = target: Tyrosine-protein kinase Fgr (Homo sapiens) (UniProt P09769); assay: Inhibition of FGR (unknown origin) assessed as remaining activity at 1 uM by Kinome scan method relative to control
[4] = target: Tyrosine-protein kinase JAK1 (Homo sapiens) (UniProt P23458); assay: Inhibition of JAK1 JH1 domain (unknown origin) assessed as remaining activity at 1 uM by Kinome scan method relative to control
[5] = target: Tyrosine-protein kinase Lck (Homo sapiens) (UniProt P06239); assay: Inhibition of LCK (unknown origin) assessed as remaining activity at 1 uM by Kinome scan method relative to control
[6] = target: Serine/threonine-protein kinase D2 (Homo sapiens) (UniProt Q9BZL6); assay: Inhibition of PRKD2 (unknown origin) assessed as remaining activity at 1 uM by Kinome scan method relative to control
[7] = target: Ribosomal protein S6 kinase alpha-2 (Homo sapiens) (UniProt Q15349); assay: Inhibition of N-terminal kinase domain RPS6KA2 (unknown origin) assessed as remaining activity at 1 uM by Kinome scan method relative to control
[8] = system: Tyrosine-protein kinase ABL1 (Homo sapiens), P00519 [T315I]; assay: Inhibition of human ABL1 T315I mutant assessed as residual activity at 1 uM using Poly(Ala,Glu,Lys,Tyr)6:2:5:1 as substrate in presence of 33P-ATP by ProQinase assay relative to control
[9] = target: Cytoplasmic tyrosine-protein kinase BMX (Homo sapiens) (UniProt P51813); assay: Inhibition of human BMX assessed as residual activity at 1 uM using polyEy as substrate in presence of 33P-ATP by ProQinase assay relative to control
[10] = target: Cyclin-dependent kinase 5/CDK5 activator 1 (Homo sapiens) (UniProt Q00535+Q15078); assay: Inhibition of human CDK5/p35NCK assessed as residual activity at 1 uM using RBER-CHKtide as substrate in presence of 33P-ATP by ProQinase assay relative to control; type: protein-complex assay
[11] = target: Tyrosine-protein kinase CSK (Homo sapiens) (UniProt P41240); assay: Inhibition of human CSK assessed as residual activity at 1 uM using polyEY as substrate in presence of 33P-ATP by ProQinase assay relative to control
[12] = system: Epidermal growth factor receptor (Homo sapiens), P00533 [UNDEFINED MUTATION]; assay: Inhibition of human EGFR d752-759 mutant assessed as residual activity at 1 uM using PolyEY as substrate in presence of 33P-ATP by ProQinase assay relative to control
[13] = target: Fibroblast growth factor receptor 2 (Homo sapiens) (UniProt P21802); assay: Inhibition of human FGFR2 assessed as residual activity at 1 uM using PolyEY as substrate in presence of 33P-ATP by ProQinase assay relative to control
[14] = target: Tyrosine-protein kinase FRK (Homo sapiens) (UniProt P42685); assay: Inhibition of human FRK assessed as residual activity at 1 uM using PolyEY as substrate in presence of 33P-ATP by ProQinase assay relative to control
[15] = target: Tyrosine-protein kinase Fyn (Homo sapiens) (UniProt P06241); assay: Inhibition of human FYN assessed as residual activity at 1 uM using polyEY as substrate in presence of 33P-ATP by ProQinase assay relative to control
[16] = target: Glycogen synthase kinase-3 alpha (Homo sapiens) (UniProt P49840); assay: Inhibition of human GSK3alpha assessed as residual activity at 1 uM using SUPT5 754-837 as substrate in presence of 33P-ATP by ProQinase assay relative to control
[17] = target: Inhibitor of nuclear factor kappa-B kinase subunit beta (Homo sapiens) (UniProt O14920); assay: Inhibition of human IKKbeta assessed as residual activity at 1 uM using RBER-CHKtide as substrate in presence of 33P-ATP by ProQinase assay relative to control
[18] = target: Tyrosine-protein kinase Lyn (Homo sapiens) (UniProt P07948); assay: Inhibition of human LYN assessed as residual activity at 1 uM using polyEY as substrate in presence of 33P-ATP by ProQinase assay relative to control
[19] = target: Mitogen-activated protein kinase 11 (Homo sapiens) (UniProt Q15759); assay: Inhibition of human P38beta assessed as residual activity at 1 uM using ATF2 as substrate in presence of 33P-ATP by ProQinase assay relative to control
[20] = target: Serine/threonine-protein kinase PAK 3 (Homo sapiens) (UniProt O75914); assay: Inhibition of human PAK3 assessed as residual activity at 1 uM using bio-4xCHKT as substrate in presence of 33P-ATP by ProQinase assay relative to control
[21] = target: Cyclin-Y/Cyclin-dependent kinase 16 (Homo sapiens) (UniProt Q00536+Q8ND76); assay: Inhibition of human PCTAIRE1/CyclinY assessed as residual activity at 1 uM using RBER-GSK3 as substrate in presence of 33P-ATP by ProQinase assay relative to control; type: protein-complex assay
[22] = target: Protein kinase C beta type (Homo sapiens) (UniProt P05771); assay: Inhibition of human PKCbeta1 assessed as residual activity at 1 uM using 3xChocktide-PKC(19-31) as substrate in presence of 33P-ATP by ProQinase assay relative to control
[23] = target: Protein kinase C delta type (Homo sapiens) (UniProt Q05655); assay: Inhibition of human PKCdelta assessed as residual activity at 1 uM using 3xChocktide-PKC(19-31) as substrate in presence of 33P-ATP by ProQinase assay relative to control
[24] = target: SRSF protein kinase 1 (Homo sapiens) (UniProt Q96SB4); assay: Inhibition of human SRPK1 assessed as residual activity at 1 uM using MBP as substrate in presence of 33P-ATP by ProQinase assay relative to control
[25] = target: High affinity nerve growth factor receptor (Homo sapiens) (UniProt P04629); assay: Inhibition of human TRKA assessed as residual activity at 1 uM using PolyEY as substrate in presence of 33P-ATP by ProQinase assay relative to control
[26] = target: Serine/threonine-protein kinase 16 (Homo sapiens) (UniProt O75716); assay: Inhibition of human TSF1 assessed as residual activity at 1 uM using casein as substrate in presence of 33P-ATP by ProQinase assay relative to control
[27] = target: Non-receptor tyrosine-protein kinase TYK2 (Homo sapiens) (UniProt P29597); assay: Inhibition of human TYK2 assessed as residual activity at 1 uM using poly(Ala,Glu,Lys,Tyr)6:2:5:1 as substrate in presence of 33P-ATP by ProQinase assay relative to control
Sequence of Non-receptor tyrosine-protein kinase TYK2 (Homo sapiens) (P29597 whole entry): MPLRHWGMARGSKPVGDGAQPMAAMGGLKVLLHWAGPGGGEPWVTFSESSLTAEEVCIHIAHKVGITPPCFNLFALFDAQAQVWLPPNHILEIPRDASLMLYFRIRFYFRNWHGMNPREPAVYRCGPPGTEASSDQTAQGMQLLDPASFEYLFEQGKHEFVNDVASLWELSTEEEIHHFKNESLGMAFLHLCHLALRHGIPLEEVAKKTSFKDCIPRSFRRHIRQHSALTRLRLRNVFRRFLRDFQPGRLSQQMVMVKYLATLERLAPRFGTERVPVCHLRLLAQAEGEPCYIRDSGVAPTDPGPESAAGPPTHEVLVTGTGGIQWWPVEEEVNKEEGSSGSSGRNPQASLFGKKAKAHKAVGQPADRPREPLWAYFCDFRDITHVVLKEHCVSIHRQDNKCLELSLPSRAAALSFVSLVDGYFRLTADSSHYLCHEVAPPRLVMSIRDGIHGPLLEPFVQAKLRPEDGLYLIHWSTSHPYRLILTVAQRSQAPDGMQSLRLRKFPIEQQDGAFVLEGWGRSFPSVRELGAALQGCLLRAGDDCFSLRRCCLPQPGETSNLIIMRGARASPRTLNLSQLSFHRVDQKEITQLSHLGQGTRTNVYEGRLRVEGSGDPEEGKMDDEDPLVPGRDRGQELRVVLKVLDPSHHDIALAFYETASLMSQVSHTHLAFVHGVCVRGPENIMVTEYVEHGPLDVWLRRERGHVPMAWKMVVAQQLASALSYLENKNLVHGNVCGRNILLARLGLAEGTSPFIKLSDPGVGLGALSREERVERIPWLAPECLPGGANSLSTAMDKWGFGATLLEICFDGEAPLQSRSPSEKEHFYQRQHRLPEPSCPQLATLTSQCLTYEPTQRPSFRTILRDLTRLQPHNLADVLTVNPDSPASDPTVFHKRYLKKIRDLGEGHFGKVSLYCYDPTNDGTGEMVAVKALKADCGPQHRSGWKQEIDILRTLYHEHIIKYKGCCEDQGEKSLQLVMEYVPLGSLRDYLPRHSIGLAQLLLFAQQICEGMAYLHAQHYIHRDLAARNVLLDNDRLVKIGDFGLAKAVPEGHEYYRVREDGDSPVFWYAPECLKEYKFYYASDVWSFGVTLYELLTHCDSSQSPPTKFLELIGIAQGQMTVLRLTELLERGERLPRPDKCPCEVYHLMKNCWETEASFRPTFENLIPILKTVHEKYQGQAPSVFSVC

Sequence of Cyclin-dependent kinase 5/CDK5 activator 1 (Homo sapiens) (Q00535 whole entry): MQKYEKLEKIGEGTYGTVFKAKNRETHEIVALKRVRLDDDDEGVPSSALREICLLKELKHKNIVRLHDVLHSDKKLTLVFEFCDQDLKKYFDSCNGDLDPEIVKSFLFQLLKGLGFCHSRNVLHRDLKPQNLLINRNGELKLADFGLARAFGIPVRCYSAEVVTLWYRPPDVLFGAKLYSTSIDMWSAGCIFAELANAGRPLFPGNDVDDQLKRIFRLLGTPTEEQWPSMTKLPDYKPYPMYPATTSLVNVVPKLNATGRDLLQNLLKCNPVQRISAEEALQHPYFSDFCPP
Sequence of Cyclin-dependent kinase 5/CDK5 activator 1 (Homo sapiens) (Q15078 99-307 partner limits assumed): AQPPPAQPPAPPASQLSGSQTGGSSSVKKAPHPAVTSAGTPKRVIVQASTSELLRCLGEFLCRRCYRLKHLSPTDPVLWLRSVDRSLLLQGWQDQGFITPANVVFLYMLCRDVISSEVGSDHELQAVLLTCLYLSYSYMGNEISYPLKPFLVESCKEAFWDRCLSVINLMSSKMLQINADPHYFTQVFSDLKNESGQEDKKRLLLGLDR
Sequence of Fibroblast growth factor receptor 2 (Homo sapiens) (P21802 22-821 limits assumed): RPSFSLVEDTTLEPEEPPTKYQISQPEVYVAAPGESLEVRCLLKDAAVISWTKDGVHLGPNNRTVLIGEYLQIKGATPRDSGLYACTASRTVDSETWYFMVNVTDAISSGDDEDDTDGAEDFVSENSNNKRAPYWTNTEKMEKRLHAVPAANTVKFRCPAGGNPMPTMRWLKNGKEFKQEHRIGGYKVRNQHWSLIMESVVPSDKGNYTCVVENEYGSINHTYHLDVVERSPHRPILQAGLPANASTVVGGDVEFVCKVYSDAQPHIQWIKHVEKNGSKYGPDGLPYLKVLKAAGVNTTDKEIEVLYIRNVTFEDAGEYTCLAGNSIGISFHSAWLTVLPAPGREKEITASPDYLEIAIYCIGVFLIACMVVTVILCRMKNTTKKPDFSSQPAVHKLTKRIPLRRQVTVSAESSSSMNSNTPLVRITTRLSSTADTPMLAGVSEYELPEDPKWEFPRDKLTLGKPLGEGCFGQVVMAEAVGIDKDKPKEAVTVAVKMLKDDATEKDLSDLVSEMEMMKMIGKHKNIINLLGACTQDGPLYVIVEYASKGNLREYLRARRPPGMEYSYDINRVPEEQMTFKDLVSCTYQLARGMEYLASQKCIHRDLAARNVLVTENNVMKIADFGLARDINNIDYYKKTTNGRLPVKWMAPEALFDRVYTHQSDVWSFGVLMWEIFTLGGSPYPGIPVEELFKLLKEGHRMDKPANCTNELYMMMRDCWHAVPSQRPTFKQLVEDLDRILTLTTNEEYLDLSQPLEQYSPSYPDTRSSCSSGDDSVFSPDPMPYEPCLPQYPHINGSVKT
Sequence of Fibroblast growth factor receptor 4 (Homo sapiens) (P22455 22-802 limits assumed): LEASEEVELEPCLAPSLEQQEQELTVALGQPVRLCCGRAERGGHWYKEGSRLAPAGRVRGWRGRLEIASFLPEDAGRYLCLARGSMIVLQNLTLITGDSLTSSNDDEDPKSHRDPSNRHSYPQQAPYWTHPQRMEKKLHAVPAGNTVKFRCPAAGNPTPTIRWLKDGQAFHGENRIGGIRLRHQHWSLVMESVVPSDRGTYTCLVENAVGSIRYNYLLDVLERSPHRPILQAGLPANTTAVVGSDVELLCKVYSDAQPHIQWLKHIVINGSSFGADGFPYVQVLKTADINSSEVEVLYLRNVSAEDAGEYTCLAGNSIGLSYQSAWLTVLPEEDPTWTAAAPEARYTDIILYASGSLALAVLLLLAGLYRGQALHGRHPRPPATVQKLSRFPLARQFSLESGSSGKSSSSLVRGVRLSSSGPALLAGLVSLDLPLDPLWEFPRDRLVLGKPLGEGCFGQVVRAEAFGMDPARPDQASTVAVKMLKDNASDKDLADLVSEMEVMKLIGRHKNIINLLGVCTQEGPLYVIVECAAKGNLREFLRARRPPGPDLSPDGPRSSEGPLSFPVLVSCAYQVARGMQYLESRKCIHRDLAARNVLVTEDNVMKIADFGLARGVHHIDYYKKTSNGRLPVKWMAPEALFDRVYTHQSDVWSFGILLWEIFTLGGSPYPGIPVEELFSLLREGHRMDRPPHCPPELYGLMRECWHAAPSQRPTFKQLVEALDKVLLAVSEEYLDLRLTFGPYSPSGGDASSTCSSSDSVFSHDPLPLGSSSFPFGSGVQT
Sequence of Tyrosine-protein kinase Lyn (Homo sapiens) (P07948 2-512 limits assumed): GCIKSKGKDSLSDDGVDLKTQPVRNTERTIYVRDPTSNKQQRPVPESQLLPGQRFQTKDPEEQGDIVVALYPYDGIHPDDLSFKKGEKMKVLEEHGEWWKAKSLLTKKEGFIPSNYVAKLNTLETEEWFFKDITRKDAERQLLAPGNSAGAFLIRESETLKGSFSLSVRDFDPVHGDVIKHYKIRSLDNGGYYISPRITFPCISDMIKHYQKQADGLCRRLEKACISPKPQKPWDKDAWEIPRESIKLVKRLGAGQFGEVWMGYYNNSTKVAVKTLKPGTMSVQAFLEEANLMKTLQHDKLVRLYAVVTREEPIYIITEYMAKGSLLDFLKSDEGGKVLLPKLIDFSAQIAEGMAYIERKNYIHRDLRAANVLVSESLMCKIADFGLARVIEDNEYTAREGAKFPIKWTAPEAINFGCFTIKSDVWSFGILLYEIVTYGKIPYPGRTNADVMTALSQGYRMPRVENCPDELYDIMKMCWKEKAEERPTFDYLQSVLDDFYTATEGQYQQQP
Sequence of Ribosomal protein S6 kinase alpha-2 (Homo sapiens) (Q15349 whole entry, the tested form may be a part): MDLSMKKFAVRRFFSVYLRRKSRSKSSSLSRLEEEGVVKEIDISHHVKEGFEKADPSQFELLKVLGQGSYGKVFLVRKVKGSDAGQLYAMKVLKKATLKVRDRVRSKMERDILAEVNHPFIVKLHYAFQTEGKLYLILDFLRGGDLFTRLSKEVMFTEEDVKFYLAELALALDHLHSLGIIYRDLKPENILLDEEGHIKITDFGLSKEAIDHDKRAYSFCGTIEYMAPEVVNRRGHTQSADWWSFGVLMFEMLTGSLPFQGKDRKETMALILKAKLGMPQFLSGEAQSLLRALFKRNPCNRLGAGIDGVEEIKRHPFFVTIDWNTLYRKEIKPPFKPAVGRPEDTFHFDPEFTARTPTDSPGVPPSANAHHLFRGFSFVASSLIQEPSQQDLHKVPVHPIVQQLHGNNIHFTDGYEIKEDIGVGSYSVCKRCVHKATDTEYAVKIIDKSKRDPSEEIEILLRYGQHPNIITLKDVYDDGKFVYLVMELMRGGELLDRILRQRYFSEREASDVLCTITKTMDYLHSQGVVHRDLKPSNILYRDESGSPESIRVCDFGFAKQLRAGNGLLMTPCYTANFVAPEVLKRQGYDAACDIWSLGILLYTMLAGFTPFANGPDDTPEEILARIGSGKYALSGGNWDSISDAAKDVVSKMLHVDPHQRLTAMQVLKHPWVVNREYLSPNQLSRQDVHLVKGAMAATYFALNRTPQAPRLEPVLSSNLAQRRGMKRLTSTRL
Sequence of Activin receptor type-2B (Homo sapiens) (Q13705 whole entry): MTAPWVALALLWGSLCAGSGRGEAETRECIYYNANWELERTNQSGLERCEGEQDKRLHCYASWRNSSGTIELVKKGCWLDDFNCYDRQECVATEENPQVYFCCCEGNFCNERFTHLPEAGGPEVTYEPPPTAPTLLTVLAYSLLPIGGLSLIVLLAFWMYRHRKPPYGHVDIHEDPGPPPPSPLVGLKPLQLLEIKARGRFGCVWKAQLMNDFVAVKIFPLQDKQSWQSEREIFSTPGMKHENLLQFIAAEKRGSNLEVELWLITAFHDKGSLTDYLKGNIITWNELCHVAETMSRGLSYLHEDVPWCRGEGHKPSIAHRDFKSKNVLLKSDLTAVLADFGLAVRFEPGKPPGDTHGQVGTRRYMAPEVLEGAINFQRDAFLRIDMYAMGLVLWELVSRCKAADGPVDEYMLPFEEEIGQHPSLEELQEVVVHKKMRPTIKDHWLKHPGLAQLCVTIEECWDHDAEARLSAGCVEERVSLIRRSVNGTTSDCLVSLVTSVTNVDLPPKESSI

O=C1c2ccc(Nc3ccc(F)cc3F)cc2CCc2ccc(OC[C@H](O)CO)cc21 [Skepinone-L]
Activity [1]: 83%
Activity [2]: 98%
Activity [3]: 100%
Activity [4]: 100%
Activity [5]: 100%
Activity [6]: 100%
Activity [7]: 100%
Activity [8]: 93%
Activity [9]: 108%
Activity [10]: 90%
Activity [11]: 111%
Activity [12]: 83%
Activity [13]: 125%
Activity [14]: 111%
Activity [15]: 124%
Activity [16]: 93%
Activity [17]: 81%
Activity [18]: 98%
Activity [19]: 3%
Activity [20]: 107%
Activity [21]: 79%
Activity [22]: 103%
Activity [23]: 104%
Activity [24]: 100%
Activity [25]: 111%
Activity [26]: 94%
Activity [27]: 96%
